The record followed here is patent US20110081315A1, “NOVEL MACROCYCLIC INHIBITORS OF HEPATITIS C VIRUS REPLICATION” (INTERMUNE, INC., priority 2009, published 2011).

The subject of one experiment is hepatitis C replicon. As to the kind of experiment: hepatitis C replicon EC50 assay. It counts as cell-based. The note with it: Hepatitis C virus; hepatitis C replicon; read-out: EC50. Put shortly:
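Buffer: 50 mM Tris-HCl pH 7.5, 15% glycerol, 0.6 mM LDAO, 25 μM NS4A peptide, 10 mM DTT, at 23° C. (ambient). EC50 follows a referenced published replicon protocol.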

The next experiment deals with NS3/NS4 complexes (Hepatitis C virus genotype 1a, UniProt P27958). As to the kind of experiment: NS3/NS4 inhibition assay (IC50). The class given is biochemical. Particulars: NS3/NS4 activity; 23° C., 25 μM NS4A peptide. Put shortly:
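Inhibitory concentrations against the NS3/NS4 complex are determined at 23° C. in pH 7.5 buffer (50 mM Tris-HCl) containing 25 μM NS4A peptide, 0.6 mM lauryldimethylamine oxide, 10 mM dithiothreitol and 15% glycerol. EC50 values derive from the hepatitis C replicon assay.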

SMILES strings stand for the structures. Bounds are passed on as bounds.

Chain of NS3/NS4 complexes (P27958 1027-1657, one chain of several): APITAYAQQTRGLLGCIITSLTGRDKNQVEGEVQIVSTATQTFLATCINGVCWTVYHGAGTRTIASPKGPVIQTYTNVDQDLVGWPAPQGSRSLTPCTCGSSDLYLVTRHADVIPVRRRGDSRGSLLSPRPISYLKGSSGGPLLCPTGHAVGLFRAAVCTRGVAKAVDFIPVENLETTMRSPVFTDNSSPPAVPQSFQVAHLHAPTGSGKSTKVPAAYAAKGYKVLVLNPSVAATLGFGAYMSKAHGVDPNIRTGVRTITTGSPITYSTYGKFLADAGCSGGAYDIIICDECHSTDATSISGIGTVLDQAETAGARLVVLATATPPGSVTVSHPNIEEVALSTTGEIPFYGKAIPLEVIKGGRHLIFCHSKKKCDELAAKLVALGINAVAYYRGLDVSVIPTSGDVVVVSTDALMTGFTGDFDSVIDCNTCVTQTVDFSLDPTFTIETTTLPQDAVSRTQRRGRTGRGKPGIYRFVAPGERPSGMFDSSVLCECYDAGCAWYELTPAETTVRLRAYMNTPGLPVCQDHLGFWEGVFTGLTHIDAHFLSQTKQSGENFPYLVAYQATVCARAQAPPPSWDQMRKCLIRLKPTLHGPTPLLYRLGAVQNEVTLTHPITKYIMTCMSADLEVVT

As to `CC(C)n1c(O[C@@H]2C[C@H]3C(=O)N[C@]4(C(=O)NS(=O)(=O)N(C)C)C[C@H]4/C=C\CCCCC[C@H](NC(=O)OC(C)(C)C)C(=O)N3C2)nc2c(NC(=O)OCc3ccccc3)cccc21` [Compound 1428], the EC50 in the experiment with hepatitis C replicon was under 10 nM. Also, the IC50 against NS3/NS4 complexes is under 10 nM.
For the compound `CC(C)n1c(O[C@@H]2C[C@H]3C(=O)N[C@]4(C(=O)NS(=O)(=O)C5(C)CC5)C[C@H]4/C=C\CCCCC[C@H](Nc4cccc(C(C)(C)C)c4)C(=O)N3C2)nc2ccccc21` [Compound 200], in the experiment on hepatitis C replicon, the EC50 is under 10 nM. Moreover, on NS3/NS4 complexes, the 50% inhibitory concentration (IC50) was under 10 nM.
`Cc1nc2cc(O[C@@H]3C[C@H]4C(=O)N[C@]5(C(=O)NS(=O)(=O)C6(C)CC6)C[C@H]5/C=C\CCCCC[C@H](Nc5ccccc5)C(=O)N4C3)ccc2o1` [Compound 1252]: the EC50 in the experiment with hepatitis C replicon fell in the range of 10 to 100 nM. The compound further returned an IC50 against NS3/NS4 complexes of under 10 nM.
Turning to `CC(C)n1c(O[C@@H]2C[C@H]3C(=O)N[C@]4(C(=O)NS(=O)(=O)C5(C)CC5)C[C@H]4/C=C\CCCCC[C@H](NC(=O)OC(C)(C)C)C(=O)N3C2)nc2c(-c3nc(Cc4cc(F)cc(F)c4)cs3)cccc21` [Compound 1722], the EC50 with hepatitis C replicon was 10 to 100 nM. Moreover, the IC50 at NS3/NS4 complexes is under 10 nM.
On to `CC1(S(=O)(=O)NC(=O)[C@@]23C[C@H]2/C=C\CCCCC[C@H](Nc2cccc(F)c2)C(=O)N2C[C@H](O)C[C@H]2C(=O)N3)CC1` [Compound 1003], for which the EC50 in the experiment with hepatitis C replicon was 10 to 100 nM. This compound returned a half-maximal inhibitory concentration (IC50) against NS3/NS4 complexes of over 100 nM.
As to `CC(C)n1c(O[C@@H]2C[C@H]3C(=O)N[C@]4(C(=O)NS(=O)(=O)C5(C)CC5)C[C@H]4/C=C\CCCCC[C@H](NC(=O)OC(C)(C)C)C(=O)N3C2)nc2c(-c3nccs3)cccc21` [Compound 234], in the experiment with hepatitis C replicon, the concentration giving a half-maximal response (EC50) was under 10 nM. Further, the IC50 at NS3/NS4 complexes is under 10 nM.
In the case of `COc1ccc2c(O[C@@H]3C[C@H]4C(=O)N[C@]5(C(=O)NS(=O)(=O)C6(C)CC6)C[C@H]5/C=C\CCCCC[C@H](Nc5cccc(C(=O)N6CCN(c7cccc(C(F)(F)F)c7)CC6)c5)C(=O)N4C3)cc(-c3nc(C(C)C)cs3)nc2c1C` [Compound 124], the concentration giving a half-maximal response (EC50) with hepatitis C replicon fell in the range of 10 to 100 nM. The IC50 at NS3/NS4 complexes was under 10 nM.
`CC(C)n1c(O[C@@H]2C[C@H]3C(=O)N[C@]4(C(=O)NS(=O)(=O)C5(C)CC5)C[C@H]4/C=C\CCCCC[C@H](NC(=O)OC(C)(C)C)C(=O)N3C2)nc2c(-c3nc(Cc4ccccc4)cs3)cccc21` [Compound 1767]: the EC50 in the experiment with hepatitis C replicon is under 10 nM. The compound also gave an IC50 on NS3/NS4 complexes of under 10 nM.
For `CC(C)n1c(O[C@@H]2C[C@H]3C(=O)N[C@]4(C(=O)NS(=O)(=O)C5(C)CC5)C[C@H]4/C=C\CCCCC[C@H](Nc4ccccc4)C(=O)N3C2)nc2c(-c3cccc(F)c3)cccc21` [Compound 239], the 50% effective concentration (EC50) in the experiment with hepatitis C replicon lay within 10 to 100 nM. Besides, on NS3/NS4 complexes, the IC50 is under 10 nM.
In the case of `COc1ccc(-c2cccc3c2nc(O[C@@H]2C[C@H]4C(=O)N[C@]5(C(=O)NS(=O)(=O)N(C)C)C[C@H]5/C=C\CCCCC[C@H](NC(=O)OC(C)(C)C)C(=O)N4C2)n3C(C)C)cn1` [Compound 1739], the EC50 in the experiment with hepatitis C replicon was 10 to 100 nM. At NS3/NS4 complexes, this compound had an IC50 of under 10 nM.
In the case of `COc1cccc2c1nc(O[C@@H]1C[C@H]3C(=O)N[C@]4(C(=O)NS(=O)(=O)N(C)C)C[C@H]4/C=C\CCCCC[C@H](NC(=O)OC(C)(C)C)C(=O)N3C1)n2C(C)C` [Compound 286], the EC50 with hepatitis C replicon is under 10 nM. This compound also showed a concentration for half-maximal inhibition (IC50) against NS3/NS4 complexes of under 10 nM.
As for `CCc1nc2ccccc2nc1O[C@@H]1C[C@H]2C(=O)N[C@]3(C(=O)NS(=O)(=O)N(C)C)C[C@H]3/C=C\CCCCC[C@H](NC(=O)OC(C)(C)C)C(=O)N2C1` [Compound 302], the concentration giving a half-maximal response (EC50) with hepatitis C replicon was under 10 nM. On NS3/NS4 complexes, this compound gave a 50% inhibitory concentration (IC50) of under 10 nM.
Consider `CC(C)n1c(O[C@@H]2C[C@H]3C(=O)N[C@]4(C(=O)NS(=O)(=O)C5(C)CC5)C[C@H]4/C=C\CCCCC[C@H](Nc4cc(F)cc(C(F)(F)F)c4)C(=O)N3C2)nc2cncnc21` [Compound 503], for which the concentration giving a half-maximal response (EC50) with hepatitis C replicon was in the range of 10 to 100 nM. The compound further showed a half-inhibitory concentration (IC50) against NS3/NS4 complexes of under 10 nM.
Consider `CN(C)S(=O)(=O)NC(=O)[C@@]12C[C@H]1/C=C\CCCCC[C@H](NC(=O)OC(C)(C)C)C(=O)N1C[C@H](Oc3nc4ccccc4n3C3CC3)C[C@H]1C(=O)N2` [Compound 205], for which the EC50 in the experiment on hepatitis C replicon was under 10 nM. This compound registered an IC50 at NS3/NS4 complexes of under 10 nM.
`Cc1ccc(-c2csc(-c3cccc4c3nc(O[C@@H]3C[C@H]5C(=O)N[C@]6(C(=O)NS(=O)(=O)C7(C)CC7)C[C@H]6/C=C\CCCCC[C@H](NC(=O)OC(C)(C)C)C(=O)N5C3)n4C(C)C)n2)c(C)c1` [Compound 1717]: the EC50 in the experiment with hepatitis C replicon fell in the range of 10 to 100 nM. This compound showed a 50% inhibitory concentration (IC50) on NS3/NS4 complexes of under 10 nM.
Take `CC(C)n1c(O[C@@H]2C[C@H]3C(=O)N[C@]4(C(=O)NS(=O)(=O)C5(C)CC5)C[C@H]4/C=C\CCCCC[C@H](Nc4ccccc4)C(=O)N3C2)nc2c(-c3ccoc3)cccc21` [Compound 252]: in the experiment with hepatitis C replicon, the EC50 was 10 to 100 nM. Further, the 50% inhibitory concentration (IC50) on NS3/NS4 complexes was under 10 nM.
Turning to `CC(C)n1c(O[C@@H]2C[C@H]3C(=O)N[C@]4(C(=O)NS(=O)(=O)C5(C)CC5)C[C@H]4/C=C\CCCCC[C@H](NC(=O)OC(C)(C)C)C(=O)N3C2)nc2c(-c3nc(Cc4ccccc4Cl)cs3)cccc21` [Compound 1727], in the experiment with hepatitis C replicon, the EC50 is under 10 nM. For the same compound, on NS3/NS4 complexes, the half-inhibitory concentration (IC50) is under 10 nM.
As to `CC(C)c1nc(-c2cccc3c2nc(O[C@@H]2C[C@H]4C(=O)N[C@]5(C(=O)NS(=O)(=O)C6(C)CC6)C[C@H]5/C=C\CCCCC[C@H](NC(=O)OC(C)(C)C)C(=O)N4C2)n3C(C)C)sc1C(C)C` [Compound 1213], in the experiment with hepatitis C replicon, the EC50 was in the range of 10 to 100 nM. The compound also displayed an IC50 against NS3/NS4 complexes of under 10 nM.
The matching figures for `CC(C)n1c(O[C@@H]2C[C@H]3C(=O)N[C@]4(C(=O)NS(=O)(=O)N(C)C)C[C@H]4/C=C\CCCCC[C@H](NC(=O)OC(C)(C)C)C(=O)N3C2)nc2c(-c3nccs3)cccc21` [Compound 226]: under 10 nM and under 10 nM.
Take `CC(C)n1c(O[C@@H]2C[C@H]3C(=O)N[C@]4(C(=O)NS(=O)(=O)C5(C)CC5)C[C@H]4/C=C\CCCCC[C@H](Nc4ccccc4)C(=O)N3C2)nc2c(C(=O)O)cccc21` [Compound 267]: the EC50 in the experiment with hepatitis C replicon is over 100 nM. The IC50 on NS3/NS4 complexes was under 10 nM.
The like results for `CC(C)c1nc(-c2cccc3c2nc(O[C@@H]2C[C@H]4C(=O)N[C@]5(C(=O)NS(=O)(=O)N(C)C)C[C@H]5/C=C\CCCCC[C@H](NC(=O)OC(C)(C)C)C(=O)N4C2)n3C(C)C)sc1C(C)C` [Compound 1201] were, in that order, over 100 nM and under 10 nM.
The matching figures for `CC(C)n1c(O[C@@H]2C[C@H]3C(=O)N[C@]4(C(=O)NS(=O)(=O)N(C)C)C[C@H]4/C=C\CCCCC[C@H](NC(=O)OC(C)(C)C)C(=O)N3C2)nc2c(-c3nc(-c4ccccc4)cs3)cccc21` [Compound 233]: 10 to 100 nM and under 10 nM.
The matching figures for `CC(C)n1c(O[C@@H]2C[C@H]3C(=O)N[C@]4(C(=O)NS(=O)(=O)N(C)C)C[C@H]4/C=C\CCCCC[C@H](NC(=O)OC(C)(C)C)C(=O)N3C2)nc2c(C(=O)O)cccc21` [Compound 276]: over 100 nM and under 10 nM.
On to `CCC(C)n1c(O[C@@H]2C[C@H]3C(=O)N[C@]4(C(=O)NS(=O)(=O)N(C)C)C[C@H]4/C=C\CCCCC[C@H](NC(=O)OC(C)(C)C)C(=O)N3C2)nc2ccccc21` (some centres unmarked) [Compound 1224], for which, in the experiment with hepatitis C replicon, the half-maximal effective concentration (EC50) is under 10 nM. Besides, the IC50 at NS3/NS4 complexes is under 10 nM.
As for `CC(C)n1c(O[C@@H]2C[C@H]3C(=O)N[C@]4(C(=O)NS(=O)(=O)C5(C)CC5)C[C@H]4/C=C\CCCCC[C@H](NC(=O)OC(C)(C)C)C(=O)N3C2)nc2c(-c3nc(Cc4ccc(F)cc4)cs3)cccc21` [Compound 1726], the 50% effective concentration (EC50) in the experiment with hepatitis C replicon is under 10 nM. The compound further showed an IC50 against NS3/NS4 complexes of under 10 nM.
